According to patent US20250313535A1, “ALPHA 4 BETA 7 INTEGRIN MODULATORS AND USES THEREOF” (DICE MOLECULES SV, INC., priority 2022, published 2025):
Read-outs that look alike come from different tables or passages of the source.

Columns and labels:
Type in all cases: cell-based
α4β7 integrin [1] = target: T1, α4β7 integrin (Homo sapiens (Human), UniProt P13612+P26010); test: Integrin Adhesion Assay: Protocol 4 (MAdCAM-coated plate, RPMI-8866 cells with stable LOF mutation of the ITGB1 gene); settings: RPMI-8866 cells with stable LOF mutation of the ITGB1 gene; read-out: Mean IC50 α4β7 KO^a
Outline: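 RPMI-8866 cells with CRISPR/Cas9 knockout of ITGB1 (2×10^6/mL) were added to MAdCAM-coated wells with compound (1% DMSO) in HEPES/NaCl buffer with 1 mM MnCl2, 0.1 mM CaCl2 and 1% BSA, then incubated 1 h at 37 °C. After four washes, adherent cells were quantified by CellTiter-Glo luminescence. Percent inhibition versus DMSO and control compound was fitted to 4-parameter curves.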

α4β7 integrin [2] = target: T1, α4β7 integrin; test: Integrin Adhesion Assay: Protocol 1 (MAdCAM-coated plate, RPMI-8866 cells, CellTiter GLO readout)
Outline: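 RPMI-8866 cells (2×10^6 per mL) added with compounds (1% DMSO) to MAdCAM-coated wells blocked in HEPES/NaCl buffer with 1 mM MnCl2, 0.1 mM CaCl2, 1% BSA; 1 h at 37° C, 5% CO2. After four washes, bound cells read by CellTiter GLO luminescence; % inhibition vs DMSO and control wells, 4-parameter fit.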

α4β1 integrin = α4β1 integrin (Homo sapiens (Human), UniProt P05556+P13612); test: Integrin Adhesion Assay: Protocol 5 (VCAM-coated plate, RPMI-8866 cells with stable LOF mutation of the ITGB7 gene)
Outline: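 RPMI-8866 B cells with CRISPR/Cas9 ITGB7 knockout (clonal, verified by flow cytometry) adhered to VCAM-coated wells for 1 h at 37° C in HEPES/NaCl buffer with 1 mM MnCl2, 0.1 mM CaCl2, 1% BSA, 1% DMSO. Bound cells quantified by CellTiter-Glo luminescence after washing; % inhibition versus DMSO and control, 4-parameter fit.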

[3] = RPMI-8866 cells with stable LOF mutation of the ITGB7 gene, read-out: Mean IC50 α4β1 KO^b
[4] = Protocol 5, RPMI-8866 cells with LOF mutation of ITGB7, VCAM, read-out: Mean IC50 α4β1 KO

α4β1 integrin, sequence (P13612 34-1032): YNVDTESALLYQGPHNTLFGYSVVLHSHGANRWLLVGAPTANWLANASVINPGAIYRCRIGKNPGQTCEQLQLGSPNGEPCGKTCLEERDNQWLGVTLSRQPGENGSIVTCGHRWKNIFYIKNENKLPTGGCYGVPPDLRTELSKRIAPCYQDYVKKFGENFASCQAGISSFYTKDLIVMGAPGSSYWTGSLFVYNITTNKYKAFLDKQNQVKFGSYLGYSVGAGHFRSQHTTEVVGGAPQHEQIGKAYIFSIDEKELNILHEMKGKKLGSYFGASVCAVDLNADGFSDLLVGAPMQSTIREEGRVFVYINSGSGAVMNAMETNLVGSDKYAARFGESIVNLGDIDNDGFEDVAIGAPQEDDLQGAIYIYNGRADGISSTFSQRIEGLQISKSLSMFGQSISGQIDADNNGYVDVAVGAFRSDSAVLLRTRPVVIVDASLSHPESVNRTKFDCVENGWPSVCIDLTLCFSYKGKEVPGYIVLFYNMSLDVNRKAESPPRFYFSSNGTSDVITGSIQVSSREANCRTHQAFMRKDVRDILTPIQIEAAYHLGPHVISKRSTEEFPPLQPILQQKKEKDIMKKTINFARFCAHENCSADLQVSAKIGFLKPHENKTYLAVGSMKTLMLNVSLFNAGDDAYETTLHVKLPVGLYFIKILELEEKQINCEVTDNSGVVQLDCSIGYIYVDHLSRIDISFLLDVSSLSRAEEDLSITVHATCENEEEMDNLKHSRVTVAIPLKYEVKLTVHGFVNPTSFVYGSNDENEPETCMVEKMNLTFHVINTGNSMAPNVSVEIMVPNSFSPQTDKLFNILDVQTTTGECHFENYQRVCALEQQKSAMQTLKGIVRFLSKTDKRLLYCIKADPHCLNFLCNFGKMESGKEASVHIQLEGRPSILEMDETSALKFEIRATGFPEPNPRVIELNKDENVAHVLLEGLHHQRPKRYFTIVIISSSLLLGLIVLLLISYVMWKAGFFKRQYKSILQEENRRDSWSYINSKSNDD
α4β1 integrin, sequence (P05556 21-798): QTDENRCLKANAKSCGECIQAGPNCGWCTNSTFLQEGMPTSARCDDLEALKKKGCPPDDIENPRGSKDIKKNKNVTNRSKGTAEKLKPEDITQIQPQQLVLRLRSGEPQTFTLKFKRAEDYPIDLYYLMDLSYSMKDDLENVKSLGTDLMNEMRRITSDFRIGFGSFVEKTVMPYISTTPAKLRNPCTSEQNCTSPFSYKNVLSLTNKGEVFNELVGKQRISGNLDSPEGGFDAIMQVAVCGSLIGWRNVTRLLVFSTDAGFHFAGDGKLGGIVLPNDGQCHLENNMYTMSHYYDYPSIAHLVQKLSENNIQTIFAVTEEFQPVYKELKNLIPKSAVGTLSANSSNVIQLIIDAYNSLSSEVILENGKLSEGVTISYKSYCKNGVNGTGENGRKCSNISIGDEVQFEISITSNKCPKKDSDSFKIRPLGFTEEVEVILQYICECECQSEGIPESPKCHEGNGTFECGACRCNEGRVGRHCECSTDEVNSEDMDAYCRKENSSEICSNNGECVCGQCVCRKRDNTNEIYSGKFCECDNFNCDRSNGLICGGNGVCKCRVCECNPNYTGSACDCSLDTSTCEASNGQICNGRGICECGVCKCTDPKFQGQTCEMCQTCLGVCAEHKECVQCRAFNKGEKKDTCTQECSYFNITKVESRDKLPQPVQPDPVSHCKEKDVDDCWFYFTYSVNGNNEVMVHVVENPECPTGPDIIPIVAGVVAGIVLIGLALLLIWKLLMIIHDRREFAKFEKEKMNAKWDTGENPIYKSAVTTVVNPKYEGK
T1 sequence (P13612 34-1032): as the sequence (P13612 34-1032) above
T1 sequence (P26010 20-798): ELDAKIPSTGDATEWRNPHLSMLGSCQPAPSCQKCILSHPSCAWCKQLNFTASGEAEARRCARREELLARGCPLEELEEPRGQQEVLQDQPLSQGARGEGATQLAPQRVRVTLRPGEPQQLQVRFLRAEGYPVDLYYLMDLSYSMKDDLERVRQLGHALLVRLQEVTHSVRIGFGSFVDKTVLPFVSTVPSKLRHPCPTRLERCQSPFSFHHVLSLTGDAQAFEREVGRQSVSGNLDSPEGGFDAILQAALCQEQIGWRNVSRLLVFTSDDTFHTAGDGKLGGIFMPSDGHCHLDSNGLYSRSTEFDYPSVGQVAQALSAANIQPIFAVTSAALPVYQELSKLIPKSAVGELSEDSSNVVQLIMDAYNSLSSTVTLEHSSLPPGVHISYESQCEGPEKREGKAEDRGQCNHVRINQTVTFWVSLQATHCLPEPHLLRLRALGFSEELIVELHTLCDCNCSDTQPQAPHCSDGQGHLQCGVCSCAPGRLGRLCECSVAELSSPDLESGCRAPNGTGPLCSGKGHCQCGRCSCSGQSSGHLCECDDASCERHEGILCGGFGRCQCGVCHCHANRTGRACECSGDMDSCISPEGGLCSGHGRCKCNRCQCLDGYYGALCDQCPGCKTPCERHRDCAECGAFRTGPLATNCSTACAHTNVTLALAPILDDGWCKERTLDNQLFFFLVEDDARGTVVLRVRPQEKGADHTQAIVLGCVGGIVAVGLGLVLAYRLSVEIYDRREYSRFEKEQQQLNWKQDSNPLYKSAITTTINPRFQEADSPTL

Row | IC50 (α4β7 integrin [1]) [nM] | IC50 (α4β7 integrin [2]) [nM] | IC50 (α4β1 integrin; [3]) [nM] | IC50 (α4β7 integrin [2]; protocol not given) [nM] | IC50 (α4β1 integrin; [4]) [nM] | SMILES
1 | 100 to 1000 | 100 to 1000 | – | – | – | CN(C)c1ccc2c(c1)c(C(F)(F)F)c(-c1cccc3c(C[C@H](NC(=O)[C@]4(C)CC[C@H](N5CCOC[C@@H]5C(F)(F)F)CC4)C(=O)O)cccc13)c(=O)n2C (single isomer, unassigned) [Compound 410]
2 | 100 to 1000 | 100 to 1000 | – | – | – | CC[C@@](Cc1cccs1)(C(=O)N[C@@H](Cc1cccc2c(-c3c(C(F)(F)F)ccn(C)c3=O)nccc12)C(=O)O)c1ccccc1 [Compound 291]
3 | 100 to 1000 | 100 to 1000 | – | – | – | CC[C@@](Cc1cccs1)(C(=O)N[C@@H](Cc1cccc2c(-n3c(=O)ccn(C)c3=O)cccc12)C(=O)O)c1ccccc1 [Compound 292]
4 | > 1000 | 100 to 1000 | – | – | – | Cc1cncc(C)c1-c1cc(F)c(C(=O)N[C@@H](Cc2cccc3c(-c4c(C(F)(F)F)c5ccccc5n(C)c4=O)cccc23)C(=O)O)c(F)c1 [Compound 305]
5 | 100 to 1000 | 100 to 1000 | – | – | – | Cc1n[nH]c(C(F)(F)F)c1-c1cc(F)c(C(=O)N[C@@H](Cc2cccc3c(-c4c(C(F)(F)F)c5ccccc5n(C)c4=O)cccc23)C(=O)O)c(F)c1 [Compound 310]
6 | 100 to 1000 | 100 to 1000 | – | – | – | Cn1c(=O)c(-c2cccc3c(C[C@H](NC(=O)c4c(F)ccc(-c5ccncc5)c4F)C(=O)O)cccc23)c(C(F)(F)F)c2ccccc21 [Compound 311]
7 | 100 to 1000 | 100 to 1000 | – | – | – | Cn1c(C(=O)N[C@@H](Cc2cccc3c(-c4c(C(F)(F)F)c5ccccc5n(C)c4=O)cccc23)C(=O)O)cnc1C1CCOCC1 [Compound 328]
8 | 100 to 1000 | 100 to 1000 | – | – | – | Cn1c(=O)c(-c2cccc3c(C[C@H](NC(=O)c4c(F)cc(N5CCOc6ccccc65)cc4F)C(=O)O)cccc23)c(C(F)(F)F)c2ccccc21 [Compound 332]
9 | 100 to 1000 | 100 to 1000 | – | – | – | CN(C)CC1CN(c2cc(F)c(C(=O)N[C@@H](Cc3cccc4c(-c5c(C(F)(F)F)c6ccccc6n(C)c5=O)cccc34)C(=O)O)c(F)c2)CCO1 (stereo partly shown) [Compound 335]
10 | 100 to 1000 | 100 to 1000 | – | – | – | Cn1c(=O)c(-c2cccc3c(C[C@H](NC(=O)c4c(F)cc(N5CCOC[C@@H]5c5ccccc5)cc4F)C(=O)O)cccc23)c(C(F)(F)F)c2ccccc21 [Compound 336]
11 | 100 to 1000 | 100 to 1000 | – | – | – | Cn1c(=O)c(-c2cccc3c(C[C@H](NC(=O)c4c(F)cc(N5CCOC(CN6CCCC6)C5)cc4F)C(=O)O)cccc23)c(C(F)(F)F)c2ccccc21 (stereo partly shown) [Compound 339]
12 | 100 to 1000 | 100 to 1000 | – | – | – | Cn1c(=O)c(-c2cccc3c(C[C@H](NC(=O)c4c(F)cc(N5CC(F)(F)OC(F)(F)C5)cc4F)C(=O)O)cccc23)c(C(F)(F)F)c2ccccc21 [Compound 341]
13 | 100 to 1000 | 100 to 1000 | – | – | – | Cn1c(=O)c(-c2cccc3c(C[C@H](NC(=O)c4c(F)cc(C5CCNCC5)cc4F)C(=O)O)cccc23)c(C(F)(F)F)c2ccccc21 [Compound 365]
14 | 100 to 1000 | 100 to 1000 | – | – | – | Cn1c(=O)c(-c2cccc3c(C[C@H](NC(=O)c4c(F)cc(C5CCNC5)cc4F)C(=O)O)cccc23)c(C(F)(F)F)c2ccccc21 (stereo partly shown) [Compound 366]
15 | 100 to 1000 | 100 to 1000 | – | – | – | CN(C)CCc1cc(F)c(C(=O)N[C@@H](Cc2cccc3c(-c4c(C(F)(F)F)c5ccccc5n(C)c4=O)cccc23)C(=O)O)c(F)c1 [Compound 367]
16 | 100 to 1000 | 100 to 1000 | – | – | – | COCCc1cc(F)c(C(=O)N[C@@H](Cc2cccc3c(-c4c(C(F)(F)F)c5ccccc5n(C)c4=O)cccc23)C(=O)O)c(F)c1 [Compound 368]
17 | – | 10 to 100 | > 1000 | – | – | Cn1c(=O)c(-c2cccc3c(C[C@H](NC(=O)[C@]4(C)CC[C@@H](N5CCC(F)(F)CC5)CC4)C(=O)O)cccc23)c(C(F)(F)F)c2ccccc21 [Compound 401]
18 | – | > 1000 | > 1000 | – | – | Cn1c(=O)c(-c2cccc3c(C[C@H](NC(=O)[C@]4(C)CC[C@H](N5CCC(F)(F)CC5)CC4)C(=O)O)cccc23)c(C(F)(F)F)c2ccccc21 [Compound 402]
19 | – | 10 to 100 | > 1000 | – | – | Cn1c(C(F)(F)F)cc(C(F)(F)F)c(-c2cccc3c(C[C@H](NC(=O)[C@]4(C)CC[C@@H](N5CCOC[C@@H]5C(F)(F)F)CC4)C(=O)O)cccc23)c1=O [Compound 407]
20 | – | 10 to 100 | > 1000 | – | – | Cn1c(C(F)(F)F)cc(C(F)(F)F)c(-c2cccc3c(C[C@H](NC(=O)[C@]4(C)CC[C@H](N5CCOC[C@@H]5C(F)(F)F)CC4)C(=O)O)cccc23)c1=O [Compound 408]
21 | – | > 1000 | > 1000 | – | – | CN(C)c1ccc2c(c1)c(C(F)(F)F)c(-c1cccc3c(C[C@H](NC(=O)[C@]4(C)CC[C@H](N5CCC(F)(F)CC5)CC4)C(=O)O)cccc13)c(=O)n2C [Compound 412]

Row | IC50 (α4β7 integrin [1]) [nM] | IC50 (α4β7 integrin [2]) [nM] | IC50 (α4β1 integrin; [3]) [nM] | IC50 (α4β7 integrin [2]; protocol not given) [nM] | IC50 (α4β1 integrin; [4]) [nM] | SMILES
22 | – | 10 to 100 | > 1000 | – | – | Cn1c(=O)c(-c2cccc3c(C[C@H](NC(=O)C4(C)CCN([C@H]5CCOC5)CC4)C(=O)O)cccc23)c(C(F)(F)F)c2ccccc21 [Compound 413]
23 | – | < 10 | > 1000 | – | – | Cn1c(=O)c(-c2cccc3c(C[C@H](NC(=O)C4(C)CCN([C@@H]5CCOC5)CC4)C(=O)O)cccc23)c(C(F)(F)F)c2ccccc21 [Compound 414]
24 | – | 100 to 1000 | > 1000 | – | – | CO[C@@H](C)c1cc(F)c(C(=O)N[C@@H](Cc2cccc3c(-c4c(C(F)(F)F)c5ccccc5n(C)c4=O)cccc23)C(=O)O)c(F)c1 [Compound 415]
25 | – | < 10 | > 1000 | – | – | CN(C)Cc1cccc2c(-c3cccc4c(C[C@H](NC(=O)[C@]5(C)CC[C@@H](N6CCOC[C@@H]6C(F)(F)F)CC5)C(=O)O)cccc34)nccc12 [Compound 418]
26 | – | 10 to 100 | > 1000 | – | – | CN(C)Cc1cccc2c(-c3cccc4c(C[C@H](NC(=O)C5(C)CCN(CC(F)(F)F)CC5)C(=O)O)cccc34)nccc12 [Compound 420]
27 | – | < 10 | > 1000 | – | – | CN(C)Cc1cccc2c(-c3cccc4c(C[C@H](NC(=O)[C@]5(C)CC[C@H](N6CCC(F)(F)CC6)CC5)C(=O)O)cccc34)nccc12 [Compound 424]
28 | – | < 10 | 100 to 1000 | – | – | Cn1c(C(F)(F)F)cc(C(F)(F)F)c(-c2cccc3c(C[C@H](NC(=O)C4(C(F)(F)F)CCN(CC(F)(F)F)CC4)C(=O)O)cccc23)c1=O [Compound 431]
29 | – | 10 to 100 | > 1000 | – | – | Cn1ccc(C(F)(F)F)c(-c2cccc3c(C[C@H](NC(=O)c4c(F)cc(N5CCOc6ccccc65)cc4F)C(=O)O)cccc23)c1=O [Compound 439]
30 | – | 10 to 100 | > 1000 | – | – | Cn1ccc(C(F)(F)F)c(-c2cccc3c(C[C@H](NC(=O)c4c(F)cc(N5CCOC(CN6CCCC6)C5)cc4F)C(=O)O)cccc23)c1=O (stereo partly shown) [Compound 440]
31 | – | < 10 | > 1000 | – | – | CN(C)Cc1cc(-c2cccc3c(C[C@H](NC(=O)c4c(F)cc(N5CCOC[C@@H]5C(F)(F)F)cc4F)C(=O)O)cccc23)c2cnccc2c1 [Compound 445]
32 | – | < 10 | > 1000 | – | – | CN(C)Cc1ccc2c(-c3cccc4c(C[C@H](NC(=O)c5c(F)cc(N6CCOC[C@@H]6C(F)(F)F)cc5CN5CCOCC5)C(=O)O)cccc34)nccc2c1 [Compound 557]
33 | – | 10 to 100 | > 1000 | – | – | CN(C)Cc1ccc2c(-c3cccc4c(C[C@H](NC(=O)[C@]5(C)CC[C@@H](N6CCOC[C@@H]6C(F)(F)F)CC5)C(=O)O)cccc34)nccc2c1 [Compound 581]
34 | – | 10 to 100 | > 1000 | – | – | CN(C)Cc1ccc2c(-c3cccc4c(C[C@H](NC(=O)[C@]5(C)CC[C@H](N6CCOC[C@@H]6C(F)(F)F)CC5)C(=O)O)cccc34)nccc2c1 [Compound 582]
35 | – | 10 to 100 | > 1000 | – | – | CN(C)Cc1ccc2c(-c3cccc4c(C[C@H](NC(=O)C5(C)CCN(CC(F)(F)F)CC5)C(=O)O)cccc34)nccc2c1 [Compound 583]
36 | – | < 10 | > 1000 | – | – | CN(C)Cc1ccc2c(-c3cccc4c(C[C@H](NC(=O)[C@]5(C)CC[C@@H](N6CCC(F)(F)CC6)CC5)C(=O)O)cccc34)nccc2c1 [Compound 585]
37 | – | – | – | < 10 | 100 to 1000 | CN(C)Cc1ccc2c(c1)c(C(F)(F)F)c(-c1cccc3c(C[C@H](NC(=O)c4c(F)cc(N5CCOC[C@@H]5C(F)(F)F)cc4F)C(=O)O)cccc13)c(=O)n2C [Compound 698]
38 | – | – | – | < 10 | 100 to 1000 | CN(C)CCc1ccc2c(c1)c(C(F)(F)F)c(-c1cccc3c(C[C@H](NC(=O)c4c(F)cccc4F)C(=O)O)cccc13)c(=O)n2C [Compound 705]
39 | – | – | – | < 10 | 100 to 1000 | CN(C)CCc1ccc2c(c1)c(C(F)(F)F)c(-c1cccc3c(C[C@H](NC(=O)c4c(F)cc(N5CCOC[C@@H]5C(F)(F)F)cc4F)C(=O)O)cccc13)c(=O)n2C [Compound 708]
40 | – | – | – | 10 to 100 | > 1000 | O=C(N[C@@H](Cc1cccc2c(-n3c(C(F)(F)F)cccc3=O)cccc12)C(=O)O)c1c(F)cccc1F [Compound 1040]
41 | – | – | – | 10 to 100 | > 1000 | Cc1cccc(C)c1-c1cc(F)c(C(=O)N[C@@H](Cc2cccc3c(-n4c(=O)cc(CCN5CC(F)C5)n(C)c4=O)cccc23)C(=O)O)c(F)c1 [Compound 1057]
